Counter-ions that a name gives are not always drawn.
Molecular target: ASK1 (Homo sapiens (Human), UniProt Q99683)
Assay: Human ASK1 ADP-Glo kinase assay
Assay type: biochemical
Settings: recombinant ASK1 (amino acids 649-946), 50 μM ATP, MBP substrate
Protocol: Example B-1: Human ASK1 ADP-Glo Assay
The ability of test compounds to inhibit ASK1 kinase activity was determined using the luminescent ADP-Glo™ Kinase Assay and Myelin Basic Protein (MBP) as a substrate (Promega Corporation, Madison, Wis.). During the kinase reaction, ASK1 utilizes ATP and generates ADP. The remaining ATP is then depleted by addition of the ADP-Glo™ reagent which also terminates the reaction. Subsequent addition of the Kinase Detection Reagent converts the ADP that was produced during the kinase reaction to ATP, and this newly synthesized ATP is converted to light using the luciferase/luciferin reactions. The assay was performed according to the manufacturer's instructions. Briefly, purified, recombinant ASK1 (amino acids 649-946) (10-20 ng/well) was added to a 384-well, F bottom, small volume, HIbase, white plate (Greiner Bio-One, Monroe, N.C. #784075) containing 1-2 μL 5× test compound or vehicle control (diluted 1:20 from a 100% DMSO stock solution into 1× Reaction Buffer A). The enzyme was allowed to pre-incubate with test compound from 15-120 min at 30° C. before the addition of the ATP/substrate mix (final concentrations of 50 μM ATP+250 ng MBP in 1× Reaction Buffer A). The mixture was then incubated at room temperature for 40 min before the addition of ADP-Glo™ reagent and a second 40 minute room temperature incubation. Following the addition of the Kinase Detection Reagent, the plate was incubated for an additional 40 min at room temperature before reading luminescence on a FlexStation 3 (Molecular Devices, Sunnyvale, Calif.). Maximum activity was determined from wells treated with vehicle and was set to 100% and minimum activity was determined from wells containing no enzyme and this was set to 0%. Percent inhibition was calculated relative to the controls and the data graphed in Collaborative Drug Discovery (CDD) Vault (Burlingame, Calif.).

Chain of ASK1 (Q99683 649-946): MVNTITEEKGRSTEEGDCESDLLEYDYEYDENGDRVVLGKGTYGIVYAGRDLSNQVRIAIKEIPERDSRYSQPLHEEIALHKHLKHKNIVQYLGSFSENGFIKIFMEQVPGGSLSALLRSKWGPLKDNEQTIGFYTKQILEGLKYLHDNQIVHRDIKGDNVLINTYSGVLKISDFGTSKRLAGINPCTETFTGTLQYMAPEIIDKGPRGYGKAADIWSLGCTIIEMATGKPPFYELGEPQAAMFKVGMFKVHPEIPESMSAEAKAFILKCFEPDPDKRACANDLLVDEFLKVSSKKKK

In the case of `CC(C)n1cnnc1-c1cccc(NC(=O)c2cc(Oc3ccc(Br)cn3)ccc2F)n1` [Compound 1-337, 5-((5-Bromopyridin-2-yl)oxy)-2-fluoro-N-(6-(4-isopropyl-4H-1,2,4-triazol-3-yl)pyridin-2-yl)benzamide hydrochloride], the IC50 is reported as 0.3 to 1 µM.
For `CC(C)n1cnnc1-c1cccc(NC(=O)c2cc(Oc3ccccn3)ccc2F)n1` [Compound 1-210, 2-Fluoro-N-(6-(4-isopropyl-4H-1,2,4-triazol-3-yl)pyridin-2-yl)-5-(pyridin-2-yloxy)benzamide hydrochloride], the IC50 was < 0.3 µM.
`CC(C)n1cnnc1-c1cccc(NC(=O)c2cc(Oc3cccc(C4CC4)n3)ccc2F)n1` [Compound 1-213, 5-((6-Cyclopropylpyridin-2-yl)oxy)-2-fluoro-N-(6-(4-isopropyl-4H-1,2,4-triazol-3-yl)pyridin-2-yl)benzamide trifluoroacetate] was tested, and the IC50 was < 0.3 µM.
`CC(C)n1cnnc1-c1cccc(NC(=O)c2cc(NC(=O)c3ccccn3)ccc2F)n1` [Compound 1-307, N-(4-Fluoro-3-((6-(4-isopropyl-4H-1,2,4-triazol-3-yl)pyridin-2-yl)carbamoyl)phenyl)picolinamide hydrochloride] was tested, and the IC50 was < 0.3 µM.
For `C[C@H](CO)n1cnnc1-c1cccc(NC(=O)c2cc(NC(=O)c3ccccc3)ccc2F)n1` [Compound 1-341, (R)-5-Benzamido-2-fluoro-N-(6-(4-(1-hydroxypropan-2-yl)-4H-1,2,4-triazol-3-yl)pyridin-2-yl)benzamide], the IC50 was < 0.3 µM.
With `CC(C)n1cnnc1-c1cccc(NC(=O)c2cc(NC(=O)c3ccncc3)ccc2F)n1` [Compound 1-309, N-(4-Fluoro-3-((6-(4-isopropyl-4H-1,2,4-triazol-3-yl)pyridin-2-yl)carbamoyl)phenyl)isonicotinamide dihydrochloride] the IC50 was < 0.3 µM.
With `CC(C)n1cnnc1-c1cccc(NC(=O)c2cc(NC(=O)c3cc(CN)ccn3)ccc2F)n1` [Compound 1-332, 4-(Aminomethyl)-N-(4-fluoro-3-((6-(4-isopropyl-4H-1,2,4-triazol-3-yl)pyridin-2-yl)carbamoyl)phenyl)picolinamide hydrochloride] the IC50 was < 0.3 µM.
`CC(C)n1cnnc1-c1cccc(NC(=O)c2cc(NC(=O)Cc3ccccc3)ccc2F)n1` [Compound 1-333, 2-Fluoro-N-(6-(4-isopropyl-4H-1,2,4-triazol-3-yl)pyridin-2-yl)-5-(2-phenylacetamido)benzamide trifluoroacetate] was tested, and the IC50 was < 0.3 µM.
Work on `CC(C)n1cnnc1-c1cccc(NC(=O)c2cccc(Oc3cc(C(=O)O)cc(C(F)(F)F)n3)c2)n1` [Compound 1-24, 2-(3-((6-(4-Isopropyl-4H-1,2,4-triazol-3-yl)pyridin-2-yl)carbamoyl)phenoxy)-6-(trifluoromethyl)isonicotinic acid trifluoroacetate] yielded an IC50 of 0.3 to 1 µM.
With `CC(C)n1cnnc1-c1cccc(NC(=O)c2cccc(Oc3cc(C#N)cc(C(F)(F)F)n3)c2)n1` [Compound 1-23, 3-((4-Cyano-6-(trifluoromethyl)pyridin-2-yl)oxy)-N-(6-(4-isopropyl-4H-1,2,4-triazol-3-yl)pyridin-2-yl)benzamide] the IC50 was < 0.3 µM.
`CC(C)n1cnnc1-c1cccc(NC(=O)c2cc(NC(=O)c3ncccn3)ccc2F)n1` [Compound 1-314, N-(4-Fluoro-3-((6-(4-isopropyl-4H-1,2,4-triazol-3-yl)pyridin-2-yl)carbamoyl)phenyl)pyrimidine-2-carboxamide trifluoroacetate] was tested, and the IC50 was < 0.3 µM.
`CC(C)n1cnnc1-c1cccc(NC(=O)c2cccc(OCc3ccccc3)c2)n1` [Compound 1-179, 3-(Benzyloxy)-N-(6-(4-isopropyl-4H-1,2,4-triazol-3-yl)pyridin-2-yl)benzamide] was tested, and the IC50 was < 0.3 µM.
`CC(C)n1cnnc1-c1cccc(NC(=O)c2cccc(OCc3cccnc3)c2)n1` [Compound 1-181, N-(6-(4-Isopropyl-4H-1,2,4-triazol-3-yl)pyridin-2-yl)-3-(pyridin-3-ylmethoxy)benzamide hydrochloride] was tested, and the IC50 was < 0.3 µM.
`CC(C)(C)OC(=O)NCc1cc(Oc2ccnc(C(=O)Nc3cccc(-c4nncn4C4CC4)n3)c2)nc(C(F)(F)F)c1` [Compound 1-329, tert-Butyl ((2-((2-((6-(4-cyclopropyl-4H-1,2,4-triazol-3-yl)pyridin-2-yl)carbamoyl)pyridin-4-yl)oxy)-6-(trifluoromethyl)pyridin-4-yl)methyl)carbamate] gave an IC50 of 0.3 to 1 µM.
In the case of `C[C@H](CO)n1cnnc1-c1cccc(NC(=O)c2cc(Nc3ccc(F)cc3)ccc2F)n1` [Compound 1-342, (R)-2-Fluoro-5-((4-fluorophenyl)amino)-N-(6-(4-(1-hydroxypropan-2-yl)-4H-1,2,4-triazol-3-yl)pyridin-2-yl)benzamide], the IC50 is reported as 0.3 to 1 µM.
`CC(C)n1cnnc1-c1cccc(NC(=O)c2cc(Oc3ccncn3)ccc2F)n1` [Compound 1-217, 2-Fluoro-N-(6-(4-isopropyl-4H-1,2,4-triazol-3-yl)pyridin-2-yl)-5-(pyrimidin-4-yloxy)benzamide hydrochloride] was tested, and the IC50 was < 0.3 µM.
With `CC(C)n1cnnc1-c1cccc(NC(=O)c2cc(Oc3cccc(Br)n3)ccc2F)n1` [Compound 1-336, 5-((6-Bromopyridin-2-yl)oxy)-2-fluoro-N-(6-(4-isopropyl-4H-1,2,4-triazol-3-yl)pyridin-2-yl)benzamide hydrochloride] the IC50 was < 0.3 µM.
Compound `CC(C)n1cnnc1-c1cccc(NC(=O)c2cc(Oc3cccc(N4CCCC4)n3)ccc2F)n1` [Compound 1-225, 2-Fluoro-N-(6-(4-isopropyl-4H-1,2,4-triazol-3-yl)pyridin-2-yl)-5-((6-(pyrrolidin-1-yl)pyridin-2-yl)oxy)benzamide hydrochloride] has an IC50 of 0.3 to 1 µM.
In the case of `CC(C)n1cnnc1-c1cccc(NC(=O)c2cc(NC(=O)c3ccc(Br)cn3)ccc2F)n1` [Compound 1-311, 5-Bromo-N-(4-fluoro-3-((6-(4-isopropyl-4H-1,2,4-triazol-3-yl)pyridin-2-yl)carbamoyl)phenyl)picolinamide hydrochloride], the IC50 is reported as < 0.3 µM.
In the case of `CC(C)n1cnnc1-c1cccc(NC(=O)c2cc(Oc3cccc(C(F)(F)F)n3)ccc2F)c1` [Compound 1-223, 2-Fluoro-N-(3-(4-isopropyl-4H-1,2,4-triazol-3-yl)phenyl)-5-((6-(trifluoromethyl)pyridin-2-yl)oxy)benzamide hydrochloride], the IC50 is reported as < 0.3 µM.
With `C[C@H](CO)n1cnnc1-c1cccc(NC(=O)c2cc(NCc3ccc(F)cc3)ccc2F)n1` [Compound 1-343, (R)-2-Fluoro-5-((4-fluorobenzyl)amino)-N-(6-(4-(1-hydroxypropan-2-yl)-4H-1,2,4-triazol-3-yl)pyridin-2-yl)benzamide hydrochloride] the IC50 was < 0.3 µM.
`CC(C)n1cnnc1-c1cccc(NC(=O)c2cc(NC(=O)c3ccc(C(=O)O)cc3)ccc2F)n1` [Compound 1-335, 4-((4-Fluoro-3-((6-(4-isopropyl-4H-1,2,4-triazol-3-yl)pyridin-2-yl)carbamoyl)phenyl)carbamoyl)benzoic acid sodium salt] was tested, and the IC50 was < 0.3 µM.
In the case of `CC(C)n1cnnc1-c1cccc(NC(=O)c2cc(NC(=O)c3ccc(F)c(F)c3)ccc2F)n1` [Compound 1-334, 5-(3,4-Difluorobenzamido)-2-fluoro-N-(6-(4-isopropyl-4H-1,2,4-triazol-3-yl)pyridin-2-yl)benzamide hydrochloride], the IC50 is reported as < 0.3 µM.
In the case of `CC(C)n1cnnc1-c1cccc(NC(=O)c2cc(NC(=O)c3cccnc3)ccc2F)n1` [Compound 1-308, N-(4-Fluoro-3-((6-(4-isopropyl-4H-1,2,4-triazol-3-yl)pyridin-2-yl)carbamoyl)phenyl)nicotinamide hydrochloride], the IC50 is reported as < 0.3 µM.
For `O=C(Nc1ccc(F)c(C(=O)Nc2cccc(-c3nncn3C(CF)CF)n2)c1)c1ccccc1` [Compound 1-340, 5-Benzamido-N-(6-(4-(1,3-difluoropropan-2-yl)-4H-1,2,4-triazol-3-yl)pyridin-2-yl)-2-fluorobenzamide hydrochloride], the IC50 was < 0.3 µM.
For `CC(C)n1cnnc1-c1cccc(NC(=O)c2cc(NC(=O)c3cncnc3)ccc2F)n1` [Compound 1-313, N-(4-Fluoro-3-((6-(4-isopropyl-4H-1,2,4-triazol-3-yl)pyridin-2-yl)carbamoyl)phenyl)pyrimidine-5-carboxamide hydrochloride], the IC50 was < 0.3 µM.
In the case of `CC(C)n1cnnc1-c1cccc(NC(=O)c2cc(Oc3ccc(C4CC4)cn3)ccc2F)n1` [Compound 1-227, 5-((5-Cyclopropylpyridin-2-yl)oxy)-2-fluoro-N-(6-(4-isopropyl-4H-1,2,4-triazol-3-yl)pyridin-2-yl)benzamide hydrochloride], the IC50 is reported as < 0.3 µM.
With `CC(C)n1cnnc1-c1cccc(NC(=O)c2cc(Oc3cccnc3)ccc2F)n1` [Compound 1-211, 2-Fluoro-N-(6-(4-isopropyl-4H-1,2,4-triazol-3-yl)pyridin-2-yl)-5-(pyridin-3-yloxy)benzamide hydrochloride] the IC50 was < 0.3 µM.
With `CC(C)n1cnnc1-c1cccc(NC(=O)c2cc(NC(=O)c3ccccc3)ccc2F)n1` [Compound 1-305, 5-Benzamido-2-fluoro-N-(6-(4-isopropyl-4H-1,2,4-triazol-3-yl)pyridin-2-yl) benzamide hydrochloride] the IC50 was < 0.3 µM.

Reference: patent US11345676B2, “Apoptosis signal-regulating kinase 1 (ASK 1) inhibitor compounds” (PHARMAKEA, INC., priority 2017, dated 2022)
